Test [1] addresses T1, Adenosine receptor A2b (Homo sapiens) (UniProt P29275).
T1 sequence (whole entry): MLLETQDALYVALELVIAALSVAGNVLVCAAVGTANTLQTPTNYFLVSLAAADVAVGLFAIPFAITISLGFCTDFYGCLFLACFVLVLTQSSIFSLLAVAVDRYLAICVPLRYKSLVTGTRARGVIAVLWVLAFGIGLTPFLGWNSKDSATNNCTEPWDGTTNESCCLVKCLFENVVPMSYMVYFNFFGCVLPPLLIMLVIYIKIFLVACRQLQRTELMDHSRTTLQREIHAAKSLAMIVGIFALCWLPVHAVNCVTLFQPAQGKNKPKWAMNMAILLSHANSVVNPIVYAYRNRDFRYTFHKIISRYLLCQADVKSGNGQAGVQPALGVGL
Briefly: Agonist activity at human A2B receptor expressed in CHO cells assessed as induction of calcium mobilization by Fluo-4 dye based fluorescence assay. Type of test: functional, cell-based.

Test [2] addresses T1, Adenosine receptor A2b (Homo sapiens). Briefly: Agonist activity at human A2B receptor expressed in CHOK1 cells expressing ADORA2B-CRE-bla assessed as induction of cAMP accumulation by FRET assay. The test is classed as functional, cell-based.

Active and inactive are the calls of the source. No cut-off for these calls is given here.

Turning to `Nc1ncnc2c1ncn2[C@H]1O[C@H](COP(O)(O)=S)[C@@H](O)[C@H]1O`, the Activity entry in test [1] is “Dose-dependent effect”. Further, the result in test [2] was inactive.
On to `Nc1ncnc2c1ncn2[C@@H]1O[C@H](CO)[C@@H](O)[C@H]1O`, for which the result in test [1] was Active.

These data come from ChEMBL document CHEMBL4177712, “AMP and adenosine are both ligands for adenosine 2B receptor signaling” (Bioorg Med Chem Lett, 2018).
